≈ marks a conversion by molar mass, not a printed value. Entries after “also recorded” stand apart in the source; their conditions may differ. Marks after values point to notes of the source that are not given here. Numbered stars: 1 amine (or outer) side, 2 acyl side, 3 side chain; on linkers, the order of the positions; unused ones are H or OH. Ends that are not written are not given here. Peptide text beside a SMILES is read from it. Suc = O=C(CCC(=O)[*:2])[*:1]
Experiments:
[1] = test system: abdominal skin of C.R rats; experiment: Rat skin test: intradermal injection of peptide, then intradermal compound 48/80 or vehicle, wheal area; assay type: in vivo; conditions: for Mean wheal size, compound 48/80-induced cutaneous reaction: Fenistil Gel 100 mg t.a., Cromoglycate 20 mg/ml i.d., Peptide 2 10 mg/ml i.d.
Procedure: (§1) The hair of the abdominal area of C.R rats was carefully removed with an electric clipper and a depilatory cream. In each animal the abdominal area was divided to six equal zones that were marked by pen. Each zone was either subjected to peptide treatment or served as a control. In the first set of experiments, the peptide was topically applied as follows: 36 μl of peptide solution at the indicated concentration (dissolved in 72% DMSO in saline) was applied on desired abdominal area. In the second set of experiments, the peptide was injected intradermally as follows: 20 μl of peptide solution at different concentrations (dissolved in 10% DMSO in saline) was injected intradermally to an indicated abdominal area using a 27-gauge sterile needle.
(§2) Skin tests were performed 0.5, 1 or 2 hours following application of the peptide. Skin tests were performed by injecting intradermally 20 μl of the allergen (0.1 mg/ml compound 48/80 dissolved in saline) or saline alone, into the center of each marked area on the abdominal skin using a 27-gauge sterile needle. The allergic response was monitored by outlining with a marker the wheals which developed in response to allergen or saline treatment.
(§3) To quantitate the skin test results, the marker signs were transferred onto paper with scotch tape. The areas of the wheals were outlined and calculated by a computerized planimeter (Hewlett-Packard), as previously described (Sussman et al., 1982).
Tables 10-16 presents the mean areas of the wheals, which developed in response to intradermal injection of each of the tested peptides, followed by either compound 48/80 or DDW injection applied after 0.5 or 1 hour. Two doses were tested for each peptide-20 and 200 μg (injection of 20 μl from a stock solution of 1 mg/ml or 10 mg/m respectively).
Skin tests on rats using compound 48/80 as the allergen assessed the ability of the peptides of the present invention to block allergic cutaneous reactions. The abdominal skin of the rats was subjected to peptide (indicated concentrations are listed in Tables 17A-17B below) or vehicle treatment (intradermal injection); the allergic response was induced by intradermal injection of compound 48/80 at various times; and the allergic response was quantified by calculating the area of the resultant allergic wheals.

mice = experiment: IgE-independent mouse conjunctivitis induced by compound 48/80, clinical score; assay type: in vivo; parameters: scale not given here
Procedure: A murine model was chosen as an in vivo model of IgE-independent human conjunctivitis, induced by a basic secretagogue.
Six groups of mice were topically treated as described in Table 19. The first application was installed 4 times (24 hours, 21 hours, 18 hours and 30 minutes) prior to the second application.
Clinical evaluation of allergic conjunctivitis was conducted in a blind fashion by determining the extent and intensity of lid edema, chemosis, erythema and tearing.

[2] = test system: purified rat peritoneal mast cells; assay type: cell-based
Procedure: 37° C. […] Each data point represents the average of duplicate measurements. The spontaneously released histamine was subtracted.
First, the effect of compound 48/80 on exocytosis from intact mast cells was determined. […] Histamine release was determined and is presented as the net secretion that is % of the total cellular histamine following subtraction of the spontaneously released histamine. Half-maximal release was obtained at 0.1 μg/ml while maximal release was obtained at 1-10 μg/ml. Accordingly, in order to analyze the potential of each peptide to block histamine secretion, histamine secretion was induced with 5 μg/ml compound 48/80, a concentration that induces a maximal histamine release, while the cells were incubated in the presence of increasing concentrations of each peptide.
In order to investigate the ability of these peptides to block allergen-induced exocytosis, the peptides were examined for their ability to block compound 48/80 induced histamine secretion from intact mast cells in vitro. Mast cells were incubated with different concentrations of each peptide, followed by induction of histamine secretion by compound 48/80.

[3] = test system: purified rat peritoneal mast cells; experiment: Histamine secretion from intact mast cells incubated with peptide alone (secretagogue side effect); conditions: for Secretagogue (histamine secretion following incubation of mast cell with different concentrations of each peptide): no allergen; for histamine secretion from mast cells on incubation with increasing concentrations of peptide alone: no additional allergen
Procedure: Mast cells from the peritoneal cavity of C.R rats were isolated in Tyrode buffer (137 mM NaCl, 2.7 mM KC1, 1 mM MgCl2, 0.4 mM NaH2PO4, 20 mM Hepes, 1.0 mM CaCl2, 5.6 mM glucose, 1 mg/ml BSA, pH 7.2) and purified over a Ficoll gradient. A suspension of washed peritoneal cells was placed over a cushion of 30% Ficoll 400 (Pharmacia Biotech.) in buffered Saline containing 0.1% BSA; and centrifuged at 150O×g for 15 min. The purity of mast cells recovered from the bottom of the tube was >90%, as assessed by toluidine blue staining.
Purified mast cells (duplicated of 10^5 cells/0.5 ml) were incubated in Tyrode buffer with buffer or with desired concentrations of the indicated peptide for 2 h. at. 37° C. Histamine secretion was subsequently stimulated by the indicated concentration of compound 48/80 (Sigma) dissolved in Tyrode buffer. Incubation with compound 48/80 was carried out for 20 mm.in at 37° C. The reaction was terminated by placing the tubes on ice. The cells were sedimented by centrifugation at 150×g for 5 mm.in and the supernatants were collected. The amount of histamine release was determined as previously described (Aridor et al., 1990). Briefly, cell pellets were lysed using 0.1N NaOH and the volume of each sample was adjusted to 0.5 ml by H2O. Histamine content was assayed using the o-phtalaldehyde (OPT) fluorimetric method (Shore et al., 1959). Aliquots of 0.4 ml from the supernatants and cell lysates were incubated with 1.6 ml H20, 0.4 ml 1N NaOH and 0.1 ml of 10 mg/l ml OPT in methanol, for 4 min at room temperature. The reaction was terminated by the addition of 0.2 ml 3N HCl. Samples were centrifuged at 150×g for 5 min. and 0.2 ml samples were transferred to a 96 well plate. The histamine spectrofluorometric assay was run in microplates using a microplates reader (FL-600, Biotek instruments Winooski, Vt., USA). Samples were excited by light at 340 nm and read at 440 nm. Histamine release was calculated as the percentage of total histamine content (supernatant/pellet+supernatant) in each sample. Each data point represents the average of duplicate measurements. The spontaneously released histamine was subtracted.

[4] = test system: abdominal skin of C.R rats; experiment: Rat skin test: topical application of peptide, then intradermal compound 48/80 or saline, wheal area; assay type: in vivo
Procedure: as §1, §2, §3

[5] = drug 24, 21, 18 hrs and 30 min before compound 48/80, Cromoglycate 2%, Dexamethazone 0.1%, Peptide 2 2%, no treatment 2.0
[6] = drug before compound 48/80, no treatment 0.8
[7] = drug before compound 48/80, no treatment 2.3
[8] = drug before compound 48/80, no treatment 2.5
[9] = drug before compound 48/80, no treatment 7.6
[10] = intradermal peptide 1 mg/ml, 0.5 hour before, vehicle instead of compound 48/80
[11] = intradermal peptide 1 mg/ml, 1 hour before, vehicle instead of compound 48/80
[12] = intradermal peptide 10 mg/ml, 0.5 hour before, vehicle instead of compound 48/80
[13] = intradermal peptide 10 mg/ml, 1 hour before, vehicle instead of compound 48/80
[14] = drug 2% followed by vehicle, no compound 48/80

## O=C(O)c1cc(=O)c2c(OCC(O)COc3cccc4oc(C(=O)O)cc(=O)c34)cccc2o1 [Cromoglycate]
[1]; 0.5 hour incubation, Ceterizine 0.01 mg/ml i.d., no treatment 115.5 ± 30.4
  Mean wheal size, compound 48/80-induced cutaneous reaction: 76.2 ± 17.5 mm^2
[1]; 1 hour incubation, no treatment 123.3 ± 33.9
  Mean wheal size, compound 48/80-induced cutaneous reaction: 91.5 ± 12.6 mm^2
mice; [5]
  Average Score, Chemosis: 0.5
mice; [6]
  Average Score, Erythema: 0.5
mice; [7]
  Average Score, Tearing: 1.9
mice; [8]
  Average Score, Lid edema: 1.1
mice; [9]
  Average Score, Total score: 4.0

## C[C@@H]1C[C@H]2[C@@H]3CCC4=CC(=O)C=C[C@]4(C)[C@@]3(F)[C@@H](O)C[C@]2(C)[C@@]1(O)C(=O)CO [Dexamethazone]
mice; [5]
  Average Score, Chemosis: 0
mice; [6]
  Average Score, Erythema: 0.6
mice; [7]
  Average Score, Tearing: 1.0
mice; [8]
  Average Score, Lid edema: 0
mice; [9]
  Average Score, Total score: 1.6

## CC(C)C[C@H](NC(=O)CNC(=O)[C@@H](NC(=O)[C@H](CCC(=O)O)NC(=O)[C@H](CCCCN)NC(=O)[C@H](CC(C)C)NC(=O)[C@H](CC(N)=O)NC(=O)[C@H](CC(N)=O)NC(=O)[C@H](CCCCN)NC(=O)[C@@H]1CCCN1C(=O)[C@H](C)NC(=O)[C@H](CC(C)C)NC(=O)[C@H](CC(C)C)NC(=O)[C@H](C)NC(=O)[C@H](CC(C)C)NC(=O)[C@H](CC(C)C)NC(=O)[C@@H](NC(=O)[C@H](C)NC(=O)[C@@H]1CCCN1C(=O)[C@H](CC(C)C)NC(=O)[C@H](CC(C)C)NC(=O)[C@H](C)NC(=O)[C@@H](NC(=O)[C@H](C)NC(=O)[C@H](C)NC(=O)CCC(=O)O)C(C)C)C(C)C)C(C)C)C(=O)N[C@@H](Cc1ccc(O)cc1)C(=O)O [WALL016] (Suc-AAVALLPAVLLALLAPKNNLKEVGLY-OH; C-terminus assumed)
[2]
  IC50, compound 48/80 induced histamine secretion: 295 µg/mL (≈ 106 µM)
[2]; 600 μg/ml peptide, compound 48/80 concentration not given
  maximal inhibition of compound 48/80 induced histamine secretion: 79.6%
[2]; Table 9, incubation with different concentrations of each peptide, then induction of the allergic reaction
  Inhibitor (extent of inhibition of histamine secretion from mast cells): ++ (++ Moderate inhibitor (50%-70% inhibition))
[1]; intradermal peptide
  block of compound 48/80 induced allergic reaction in vivo, rat skin: effectively block the allergic response in vivo
[1]; intradermal peptide 1 mg/ml, 0.5 hour before allergic induction
  Mean Wheal Area ± STD, Compound 48/80: 104.2 ± 21.6 (n = 5) mm^2
[1]; [10]
  Mean Wheal Area ± STD, Vehicle: 66.4 ± 12.5 (n = 5) mm^2
[1]; intradermal peptide 1 mg/ml, 1 hour before allergic induction
  Mean Wheal Area ± STD, Compound 48/80: 96.3 ± 15.6 (n = 6) mm^2
[1]; [11]
  Mean Wheal Area ± STD, Vehicle: 62.8 ± 14.6 (n = 6) mm^2
[1]; intradermal peptide 10 mg/ml, 0.5 hour before allergic induction
  Mean Wheal Area ± STD, Compound 48/80: 81.2 ± 7.9 (n = 5) mm^2
[1]; [12]
  Mean Wheal Area ± STD, Vehicle: 72.6 ± 16.2 (n = 5) mm^2
[1]; intradermal peptide 10 mg/ml, 1 hour before allergic induction
  Mean Wheal Area ± STD, Compound 48/80: 82.1 ± 27.2 (n = 6) mm^2
[1]; [13]
  Mean Wheal Area ± STD, Vehicle: 69.3 ± 17.0 (n = 6) mm^2
[1]; intradermal peptide 0.5 or 1 hour before allergic induction
  reduction of compound 48/80 induced allergic reaction: significant inhibition
[3]; Table 9, peptide alone
  Secretagogue (histamine secretion following incubation of mast cell with different concentrations of each peptide): −
[3]
  histamine secretion from mast cells on incubation with increasing concentrations of peptide alone: did not result in histamine secretion
[3]; peptide alone, increasing concentrations
  basal level of histamine secretion compared to control cells: inhibition of the basal histamine secretion

## AAVALLPAVLLALLAPKNNLKECGLY [Peptide 2]
[2]
  IC50, compound 48/80 induced histamine secretion: 400 µg/mL
[4]; peptide and saline injection, without compound 48/80
  stimulatory effect of topical peptide by itself on the cutaneous allergic reactions: no stimulatory effect
[4]; topical 1 mg/ml, Animal A, 1 hour after application
  Net wheal area, effect of peptide (alone): −8.8 mm2
[4]; topical 1 mg/ml, Animal B (footnote: 1 hour after application)
  Net wheal area, effect of peptide (alone): −5.5 mm2
[4]; topical 10 mg/ml, Animal A, 1 hour after application
  Net wheal area, effect of peptide (alone): −8.3 mm2
[4]; topical 10 mg/ml, Animal B (footnote: 1 hour after application)
  Net wheal area, effect of peptide (alone): −6.0 mm2
[4]; topical peptide 1 mg/ml, animal a, skin test 1 hour after application
  Wheal area, saline injection (control): 84.64^a mm^2
[4]; topical peptide 1 mg/ml, animal b, 2 hours after application
  Wheal area, saline injection (control): 66.91^b mm^2
[4]; topical peptide 10 mg/ml, animal a, 1 hour after application
  Wheal area, saline injection (control): 85.24^a mm^2
[4]; topical peptide 10 mg/ml, animal b, 2 hours after application
  Wheal area, saline injection (control): 66.40^b mm^2
[1]; Tables 17A-B, column head '0.1' (no unit), 0.5 hr prior to allergy induction
  Mean Wheal Area ± STD, Vehicle: 57.0 ± 8.3 (n = 12) mm^2
[1]; Tables 17A-B, column head '0.1' (no unit), 1 hour prior
  Mean Wheal Area ± STD, Vehicle: 56.2 ± 11.3 (n = 5) mm^2
[1]; Tables 17A-B, column head '1' (no unit), 0.5 hr prior
  Mean Wheal Area ± STD, Vehicle: 61.7 ± 13.5 (n = 19) mm^2
[1]; Tables 17A-B, column head '1' (no unit), 1 hour prior
  Mean Wheal Area ± STD, Vehicle: 50.6 ± 7.4 (n = 5) mm^2
[1]; intradermal 1 mg/ml, Animal A, 0.5 hour
  Net wheal area, effect of peptide (alone): 3.29 mm2
[1]; intradermal 1 mg/ml, Animal B, 1 hour
  Net wheal area, effect of peptide (alone): 7.0 mm2
[1]; intradermal 1 mg/ml, Animal C, 2 hours
  Net wheal area, effect of peptide (alone): 16.5 mm2
[1]; intradermal 10 mg/ml, Animal A, 0.5 hour
  Net wheal area, effect of peptide (alone): −1.68 mm2
[1]; intradermal 10 mg/ml, Animal B, 1 hour
  Net wheal area, effect of peptide (alone): −9.9 mm2
[1]; intradermal 10 mg/ml, Animal C, 2 hours
  Net wheal area, effect of peptide (alone): −3.0 mm2
[1]; [10]
  Mean Wheal Area ± STD, Vehicle: 60.7 ± 19.3 (n = 7) mm^2
[1]; [11]
  Mean Wheal Area ± STD, Vehicle: 52.3 ± 11.1 (n = 5) mm^2
[1]; intradermal peptide 1 mg/ml, animal a, 0.5 hour after injection
  Wheal area, saline injection (control): 65.78^a mm2
[1]; intradermal peptide 1 mg/ml, animal b, 1 hour
  Wheal area, saline injection (control): 119.2^b mm2
[1]; intradermal peptide 1 mg/ml, animal c, 2 hours
  Wheal area, saline injection (control): 77.31^c mm2
[1]; [12]
  Mean Wheal Area ± STD, Vehicle: 54.8 ± 11 (n = 5) mm^2
[1]; [13]
  Mean Wheal Area ± STD, Vehicle: 50.6 ± 7.411 (n = 5) mm^2
[1]; intradermal peptide 10 mg/ml, animal a, 0.5 hour
  Wheal area, saline injection (control): 60.81^a mm2
[1]; intradermal peptide 10 mg/ml, animal b, 1 hour
  Wheal area, saline injection (control): 102.3^b mm2
[1]; intradermal peptide 10 mg/ml, animal c, 2 hours
  Wheal area, saline injection (control): 57.81^c mm2
[1]; without compound 48/80
  effect of intradermal injection of peptide alone on the cutaneous allergic reactions: hardly any stimulatory effect; also recorded: no cutaneous allergic reaction
mice; [14]
  Average Score, Erythema: 0.6
  Average Score, Lid edema: 0
  Average Score, Tearing: 0.2
  Average Score, Total score: 0.8
mice; drug 2% followed by vehicle, no compound 48/80 (Table 19 group 2)
  Average Score, Chemosis: 0
[3]; Table 1, peptide alone
  Secretagogue (histamine secretion following incubation of mast cell with different concentrations of each peptide): −

## AAVALLPAVLLALLAPKNNLKEVGLY [WALL007]
[2]
  IC50, compound 48/80 induced histamine secretion: 230 µg/mL
[1]; [10]
  Mean Wheal Area ± STD, Vehicle: 76.5 ± 14.1 (n = 12) mm^2
[1]; [11]
  Mean Wheal Area ± STD, Vehicle: 62.4 ± 11.1 (n = 15) mm^2
[1]; [12]
  Mean Wheal Area ± STD, Vehicle: 74.5 ± 26.4 (n = 12) mm^2
[1]; [13]
  Mean Wheal Area ± STD, Vehicle: 65.9 ± 10.0 (n = 11) mm^2
[3]; Table 9, peptide alone
  Secretagogue (histamine secretion following incubation of mast cell with different concentrations of each peptide): −
[3]
  histamine secretion from mast cells on incubation with increasing concentrations of peptide alone: did not result in histamine secretion
